Test results: the Kinase Knowledgebase extract (Sharma et al. 2016)

Each compound was assayed against MAPK14 (human) (UniProt Q16539) (assay: Inhibition of MAPK14 Kinase Activity).
MAPK14 (human), sequence (Q16539 whole entry, looked up): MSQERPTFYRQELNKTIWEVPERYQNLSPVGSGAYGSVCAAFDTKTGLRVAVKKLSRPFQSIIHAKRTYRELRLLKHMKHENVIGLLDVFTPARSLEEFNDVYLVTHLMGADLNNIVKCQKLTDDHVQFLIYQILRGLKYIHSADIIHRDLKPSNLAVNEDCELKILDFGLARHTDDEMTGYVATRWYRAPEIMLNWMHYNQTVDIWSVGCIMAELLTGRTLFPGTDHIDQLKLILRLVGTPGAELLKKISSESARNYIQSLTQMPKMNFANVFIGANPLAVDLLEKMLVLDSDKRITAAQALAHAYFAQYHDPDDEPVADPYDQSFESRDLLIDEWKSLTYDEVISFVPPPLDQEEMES
Compound `CN1CCC(n2c(=O)[nH]c3cc(Nc4ccc(F)cc4F)ccc32)C1` (configuration not stated) has an IC50 of less than 1000 nM. Work on `O=c1[nH]c2cc(Nc3ccccc3)ccc2n1C1CCCC1` yielded an IC50 of less than 1000 nM. Work on `COc1cccc(Cn2c(=O)[nH]c3cc(Nc4ccccc4)ccc32)c1` yielded an IC50 of less than 1000 nM. For `COc1ccccc1Nc1ccc2c(c1)[nH]c(=O)n2CC1CCCCC1`, the IC50 was less than 1000 nM. `CCS(=O)(=O)N1CCC(n2c(=O)[nH]c3cc(Nc4ccccc4F)ccc32)C1` (configuration not stated) showed an IC50 of less than 1000 nM. With `CN(C)CC(C)(C)n1c(=O)[nH]c2cc(Nc3ccccc3)ccc21` the IC50 was less than 1000 nM. `CN1CCC(n2c(=O)[nH]c3cc(Nc4ccccc4)ccc32)C1` (configuration not stated) gave an IC50 of less than 1000 nM. `CN(C)CC(C)(C)n1c(=O)[nH]c2cc(Nc3ccc(F)cc3F)ccc21` gave an IC50 of less than 1000 nM. `CNCC(C)(C)n1c(=O)[nH]c2cc(Nc3ccc(F)cc3)ccc21` was tested, and the IC50 was less than 1000 nM. `CC(C)(C)n1c(=O)[nH]c2cc(Nc3ccccc3)ccc21` showed an IC50 of less than 1000 nM. `Cc1ccccc1Nc1ccc2c(c1)[nH]c(=O)n2C(C)(C)CN` was tested, and the IC50 was less than 1000 nM. Compound `O=c1[nH]c2cc(Nc3ccccc3)ccc2n1-c1ccccc1` has an IC50 of less than 1000 nM. In the case of `O=c1[nH]c2cc(Nc3ccccc3)ccc2n1C1CCNC1` (configuration not stated), the IC50 is reported as less than 1000 nM. Work on `O=c1[nH]c2cc(Nc3ccccc3)ccc2n1CC1CCCCC1` yielded an IC50 of less than 1000 nM. `O=c1[nH]c2cc(Nc3ccccc3)ccc2n1Cc1c(F)cccc1F` was tested, and the IC50 was less than 1000 nM. For `O=c1[nH]c2cc(Nc3cccc(F)c3)ccc2n1CC1CCCCC1`, the IC50 was less than 1000 nM. For `CN(C)CC(C)(C)n1c(=O)[nH]c2cc(Nc3ccccc3F)ccc21`, the IC50 was less than 1000 nM. With `O=c1[nH]c2cc(Nc3ccccc3F)ccc2n1CC1CCCCC1` the IC50 was less than 1000 nM. In the case of `O=c1[nH]c2cc(Nc3ccccc3)ccc2n1CCc1ccccc1`, the IC50 is reported as less than 1000 nM. With `CC(C)(CN)n1c(=O)[nH]c2cc(Nc3ccc(F)cc3)ccc21` the IC50 was less than 1000 nM. For `O=c1[nH]c2cc(Nc3ccccc3)ccc2n1Cc1ccccc1`, the IC50 was less than 1000 nM. For `Cc1ccc(Nc2ccc3c(c2)[nH]c(=O)n3CC2CCCCC2)cc1N`, the IC50 was less than 1000 nM. Compound `O=c1[nH]c2cc(Nc3ccccc3F)ccc2n1C1CCNC1` (configuration not stated) has an IC50 of less than 1000 nM. `Cc1ccccc1Nc1ccc2c(c1)[nH]c(=O)n2C1CCNC1` (configuration not stated) was tested, and the IC50 was less than 1000 nM. In the case of `CCS(=O)(=O)N1CCC(n2c(=O)[nH]c3cc(Nc4ccccc4C)ccc32)C1` (configuration not stated), the IC50 is reported as less than 1000 nM. With `O=c1[nH]c2cc(Nc3ccccc3)ccc2n1C1CCc2ccccc21` (configuration not stated) the IC50 was less than 1000 nM. With `Cc1ccccc1Nc1cc2[nH]c(=O)n(CC3CCCCC3)c2cc1N(C)CCN(C)C` the IC50 was less than 1000 nM. In the case of `CN1CCN(c2cc3c(cc2Nc2ccccc2F)[nH]c(=O)n3C2CCCC2)CC1`, the IC50 is reported as less than 1000 nM. With `CNCC(C)(C)n1c(=O)[nH]c2cc(Nc3ccccc3)ccc21` the IC50 was less than 1000 nM. For `CC(c1ccccc1)n1c(=O)[nH]c2cc(Nc3ccccc3)ccc21` (configuration not stated), the IC50 was less than 1000 nM. For `CS(=O)(=O)N1CCC(n2c(=O)[nH]c3cc(Nc4ccccc4F)ccc32)C1` (configuration not stated), the IC50 was less than 1000 nM. With `CCS(=O)(=O)N1CCC(n2c(=O)[nH]c3cc(Nc4ccc(F)cc4F)ccc32)C1` (configuration not stated) the IC50 was less than 1000 nM. Work on `CN1CCC(n2c(=O)[nH]c3cc(Nc4ccccc4F)ccc32)C1` (configuration not stated) yielded an IC50 of less than 1000 nM. `CNCC(C)(C)n1c(=O)[nH]c2cc(Nc3ccccc3F)ccc21` gave an IC50 of less than 1000 nM. Compound `Cc1ccccc1Nc1cc2[nH]c(=O)n(CC3CCCCC3)c2cc1N(C)CCCN(C)C` has an IC50 of less than 1000 nM. `CS(=O)(=O)N1CCC(n2c(=O)[nH]c3cc(Nc4ccc(F)cc4)ccc32)C1` (configuration not stated) gave an IC50 of less than 1000 nM. `O=c1[nH]c2cc(Nc3ccccc3)ccc2n1Cc1cccnc1` was tested, and the IC50 was less than 1000 nM. `CN1CCN(c2cc3c(cc2Nc2ccccc2)[nH]c(=O)n3CC2CCCCC2)CC1` gave an IC50 of less than 1000 nM. `CCS(=O)(=O)N1CCC(n2c(=O)[nH]c3cc(Nc4ccccc4)ccc32)C1` (configuration not stated) gave an IC50 of less than 1000 nM. `O=c1[nH]c2cc(Nc3ccc(F)cc3)ccc2n1CC1CCCCC1` showed an IC50 of less than 1000 nM. In the case of `O=c1[nH]c2cc(Nc3ccc(F)cc3)ccc2n1C1CCNC1` (configuration not stated), the IC50 is reported as less than 1000 nM. Work on `C=C/C(=C\C=C(/C)F)Nc1ccc2c(c1)[nH]c(=O)n2C(C)(C)CN(C)C` yielded an IC50 of less than 1000 nM. In the case of `O=c1[nH]c2cc(Nc3ccc(F)cc3F)ccc2n1C1CCNC1` (configuration not stated), the IC50 is reported as less than 1000 nM. For `O=c1[nH]c2cc(Nc3ccccc3F)c(N3CCNCC3)cc2n1CC1CCCCC1`, the IC50 was less than 1000 nM. Compound `CS(=O)(=O)N1CCC(n2c(=O)[nH]c3cc(Nc4ccc(F)cc4F)ccc32)C1` (configuration not stated) has an IC50 of less than 1000 nM. With `Cc1ccccc1Nc1cc2[nH]c(=O)n(CC3CCCCC3)c2cc1N1CCN(C)CC1` the IC50 was less than 1000 nM. In the case of `CN1CCC(n2c(=O)[nH]c3cc(Nc4ccc(F)cc4)ccc32)C1` (configuration not stated), the IC50 is reported as less than 1000 nM. Compound `O=c1[nH]c2cc(Nc3ccccc3)ccc2n1C1CCCc2ccccc21` (configuration not stated) has an IC50 of less than 1000 nM. Work on `O=c1[nH]c2cc(Nc3ccccc3)ccc2n1CC1CCCO1` (configuration not stated) yielded an IC50 of less than 1000 nM. For `CC(C1CCCCC1)n1c(=O)[nH]c2cc(Nc3ccccc3)ccc21` (configuration not stated), the IC50 was less than 1000 nM. For `CCS(=O)(=O)N1CCC(n2c(=O)[nH]c3cc(Nc4ccc(F)cc4)ccc32)C1` (configuration not stated), the IC50 was less than 1000 nM. `Cc1ccccc1Nc1ccc2c(c1)[nH]c(=O)n2C(C)(C)CN(C)C` was tested, and the IC50 was less than 1000 nM. `CC(C)(CN)n1c(=O)[nH]c2cc(Nc3ccccc3F)ccc21` gave an IC50 of less than 1000 nM. With `Cc1ccccc1Nc1ccc2c(c1)[nH]c(=O)n2CC1CCCCC1` the IC50 was less than 1000 nM. `CNCC(C)(C)n1c(=O)[nH]c2cc(Nc3ccccc3C)ccc21` was tested, and the IC50 was less than 1000 nM. `CC(C)(CN)n1c(=O)[nH]c2cc(Nc3ccccc3)ccc21` showed an IC50 of less than 1000 nM. `CC(C)(CN)n1c(=O)[nH]c2cc(Nc3ccc(F)cc3F)ccc21` showed an IC50 of less than 1000 nM. `O=c1[nH]c2cc(Nc3ccc(F)cc3F)ccc2n1CC1CCCCC1` gave an IC50 of less than 1000 nM. With `O=c1[nH]c2cc(Nc3ccc(F)c(F)c3)ccc2n1CC1CCCCC1` the IC50 was less than 1000 nM. Work on `Cc1ccccc1Nc1ccc2c(c1)[nH]c(=O)n2C1CCN(S(C)(=O)=O)C1` (configuration not stated) yielded an IC50 of less than 1000 nM. `Cc1ccccc1Nc1ccc2c(c1)[nH]c(=O)n2C1CCN(C)C1` (configuration not stated) was tested, and the IC50 was less than 1000 nM. Work on `O=c1[nH]c2cc(Nc3ccccc3)c(N3CCNCC3)cc2n1CC1CCCCC1` yielded an IC50 of less than 1000 nM.
